# Columns and labels:
# Format in all cases: physicochemical
# [1] = DVS (Dynamic Vapor Sorption) moisture sorption/desorption, hygroscopicity classification
# Experimental: DVS (Dynamic Vapor Sorption): Around 10-20 mg of samples were used to test its moisture sorption/desorption profiles at 25° C. under 0%˜95%˜0% relative humidity (RH) cycle using dm/dt: 0.01%/min equilibrium and a measurement step of 5% RH.
# Hygroscopicity Classification: Typical %-moisture gain as a function of increased RH was determined by DVS. Samples went through a dynamic test isothermally at 25° C. The test was divided into 2 processes, one was absorption process, the other was desorption process. RH ranged from 0% to 95% with 5% RH for each step, and when dm/dt<=0.01%, it was assumed the water sorption/desorption equilibrium is reached.
# [2] = Solubility in SGF, FaSSIF, FeSSIF, 0.1M HCl, pH 4.5 and pH 6.8 aqueous at 25° C. (HPLC); conditions: for Solubility conc.(mg/ml): solubility of salts transformed to freebase; for Final pH: solubility test
# Experimental: Solubility: Excess drug substance was equilibrated with SGF (Simulated Gastric Fluid), FaSSIF (Simulated Small Intestinal Fluid under Fasted state), FeSSIF (Simulated Small Intestinal Fluid under Fed state), 0.1M HCl, pH 4.5 aqueous, and pH 6.8 aqueous at 25° C. After stirring for 20˜24 h, each sample was filtered, diluted appropriately and analyzed by HPLC. The experiment was terminated once a solubility target of 5 mg/mL was reached.
# [3] = Solution stability in 0.1 N HCl, pH 4.5 buffer and pH 6.8 buffer at 25° C. and 37° C., HPLC
# Experimental: Solution stability: A stock solution of compound (1.0 mg/mL) in MeOH was diluted with 0.1 N HCl, pH 4.5 buffer (acetate) and pH 6.8 buffer to reach constant ionic strength of 0.15 M and the same final concentration (50 μg/mL, 40% MeOH).
# A stock solution of 1b and 3b (1.0 mg/mL) in MeOH was diluted with pH 6.8 buffer to reach constant ionic strength of 0.15M and the same final concentration (25 μg/mL, 40% […]).
# The solutions were stored at 25° C. and 37° C.
# [4] = Solid stability at 40° C./0% RH (closed) and 40° C./75% RH (open), HPLC; conditions: for 0 day % remaining / 7 day % remaining / 21 day % remaining: solid
# Experimental: Solid stability: 5 mg of 2a was weighed into scintillation vials sealed properly and stored at 40° C./0% RH(closed), 40° C./75% RH(open) under dark conditions to avoid the effect of light on stability. Samples were collected at day 0, 5 and 10 and analyzed by HPLC.
# Solid stability: 5 mg of compound was weighed into vials sealed properly and stored at 40° C./0% RH (closed), 40° C./75% RH (open) under dark conditions to avoid the effect of light. Samples were analyzed by HPLC at days 0, 7, and 21.
# Solid stability of compound 1a: 5 mg compound were accurately weighed into scintillation vials sealed properly and stored at 40° C./0% RH(closed), 40° C./75% RH(open) under dark condition to avoid the effect of light on stability. Samples should be collected at day 0, 5 and 10 days and analyzed by HPLC.
smiles,measurement,setting,value
COc1ccc2c(c1)CCN1Cc3c(ccc(OC)c3OS(=O)(=O)c3cccc(F)c3)C[C@@H]21 [Compound 3b],Hygroscopicity classification by DVS,[1]; 25 °C,hygroscopic
same,"Change In Mass (%) - ref, Desorption","[1]; Cycle 1, target RH 0.0%",0.05%
same,"Change In Mass (%) - ref, Sorption","[1]; Cycle 1, target RH 0.0%",0.00%
same,"Change In Mass (%) - ref, Desorption","[1]; Cycle 1, target RH 5.0%",0.26%
same,"Change In Mass (%) - ref, Hysteresis","[1]; Cycle 1, target RH 5.0%",0.23%
same,"Change In Mass (%) - ref, Sorption","[1]; Cycle 1, target RH 5.0%",0.03%
same,"Change In Mass (%) - ref, Desorption","[1]; Cycle 1, target RH 10.0%",0.46%
same,"Change In Mass (%) - ref, Hysteresis","[1]; Cycle 1, target RH 10.0%",0.18%
same,"Change In Mass (%) - ref, Sorption","[1]; Cycle 1, target RH 10.0%",0.28%
same,"Change In Mass (%) - ref, Desorption","[1]; Cycle 1, target RH 15.0%",0.61%
same,"Change In Mass (%) - ref, Hysteresis","[1]; Cycle 1, target RH 15.0%",0.29%
same,"Change In Mass (%) - ref, Sorption","[1]; Cycle 1, target RH 15.0%",0.32%
same,"Change In Mass (%) - ref, Desorption","[1]; Cycle 1, target RH 20.0%",4.13%
same,"Change In Mass (%) - ref, Hysteresis","[1]; Cycle 1, target RH 20.0%",3.79%
same,"Change In Mass (%) - ref, Sorption","[1]; Cycle 1, target RH 20.0%",0.34%
same,"Change In Mass (%) - ref, Desorption","[1]; Cycle 1, target RH 25.0%",8.89%
same,"Change In Mass (%) - ref, Hysteresis","[1]; Cycle 1, target RH 25.0%",8.50%
same,"Change In Mass (%) - ref, Sorption","[1]; Cycle 1, target RH 25.0%",0.39%
same,"Change In Mass (%) - ref, Desorption","[1]; Cycle 1, target RH 30.0%",9.08%
same,"Change In Mass (%) - ref, Hysteresis","[1]; Cycle 1, target RH 30.0%",1.62%
same,"Change In Mass (%) - ref, Sorption","[1]; Cycle 1, target RH 30.0%",7.46%
same,"Change In Mass (%) - ref, Desorption","[1]; Cycle 1, target RH 35.0%",9.14%
same,"Change In Mass (%) - ref, Hysteresis","[1]; Cycle 1, target RH 35.0%",0.21%
same,"Change In Mass (%) - ref, Sorption","[1]; Cycle 1, target RH 35.0%",8.93%
same,"Change In Mass (%) - ref, Desorption","[1]; Cycle 1, target RH 40.0%",9.18%
same,"Change In Mass (%) - ref, Hysteresis","[1]; Cycle 1, target RH 40.0%",0.13%
same,"Change In Mass (%) - ref, Sorption","[1]; Cycle 1, target RH 40.0%",9.06%
same,"Change In Mass (%) - ref, Desorption","[1]; Cycle 1, target RH 45.0%",9.26%
same,"Change In Mass (%) - ref, Hysteresis","[1]; Cycle 1, target RH 45.0%",0.16%
same,"Change In Mass (%) - ref, Sorption","[1]; Cycle 1, target RH 45.0%",9.10%
same,"Change In Mass (%) - ref, Desorption","[1]; Cycle 1, target RH 50.0%",10.73%
same,"Change In Mass (%) - ref, Hysteresis","[1]; Cycle 1, target RH 50.0%",1.59%
same,"Change In Mass (%) - ref, Sorption","[1]; Cycle 1, target RH 50.0%",9.14%
same,"Change In Mass (%) - ref, Desorption","[1]; Cycle 1, target RH 55.0%",10.99%
same,"Change In Mass (%) - ref, Hysteresis","[1]; Cycle 1, target RH 55.0%",1.77%
same,"Change In Mass (%) - ref, Sorption","[1]; Cycle 1, target RH 55.0%",9.22%
same,"Change In Mass (%) - ref, Desorption","[1]; Cycle 1, target RH 60.0%",11.23%
same,"Change In Mass (%) - ref, Hysteresis","[1]; Cycle 1, target RH 60.0%",1.82%
same,"Change In Mass (%) - ref, Sorption","[1]; Cycle 1, target RH 60.0%",9.41%
same,"Change In Mass (%) - ref, Desorption","[1]; Cycle 1, target RH 65.0%",11.50%
same,"Change In Mass (%) - ref, Hysteresis","[1]; Cycle 1, target RH 65.0%",0.36%
same,"Change In Mass (%) - ref, Sorption","[1]; Cycle 1, target RH 65.0%",11.14%
same,"Change In Mass (%) - ref, Desorption","[1]; Cycle 1, target RH 70.0%",11.84%
same,"Change In Mass (%) - ref, Hysteresis","[1]; Cycle 1, target RH 70.0%",0.04%
same,"Change In Mass (%) - ref, Sorption","[1]; Cycle 1, target RH 70.0%",11.79%
same,"Change In Mass (%) - ref, Desorption","[1]; Cycle 1, target RH 75.0%",12.27%
same,"Change In Mass (%) - ref, Hysteresis","[1]; Cycle 1, target RH 75.0%",0.04%
same,"Change In Mass (%) - ref, Sorption","[1]; Cycle 1, target RH 75.0%",12.23%
same,"Change In Mass (%) - ref, Desorption","[1]; Cycle 1, target RH 80.0%",12.85%
same,"Change In Mass (%) - ref, Hysteresis","[1]; Cycle 1, target RH 80.0%",0.05%
same,"Change In Mass (%) - ref, Sorption","[1]; Cycle 1, target RH 80.0%",12.79%
same,"Change In Mass (%) - ref, Desorption","[1]; Cycle 1, target RH 85.0%",13.71%
same,"Change In Mass (%) - ref, Hysteresis","[1]; Cycle 1, target RH 85.0%",0.08%
same,"Change In Mass (%) - ref, Sorption","[1]; Cycle 1, target RH 85.0%",13.64%
same,"Change In Mass (%) - ref, Desorption","[1]; Cycle 1, target RH 90.0%",15.23%
same,"Change In Mass (%) - ref, Hysteresis","[1]; Cycle 1, target RH 90.0%",0.15%
same,"Change In Mass (%) - ref, Sorption","[1]; Cycle 1, target RH 90.0%",15.08%
same,"Change In Mass (%) - ref, Desorption","[1]; Cycle 1, target RH 95.0%",17.97%
same,"Change In Mass (%) - ref, Sorption","[1]; Cycle 1, target RH 95.0%",17.97%
same,moisture picked up (DVS),"[1]; at 80% RH, 25 °C",~13%
same,moisture picked up (DVS),"[1]; at 95% RH, 25 °C",~18%
same,Solubility conc.(mg/ml),[2]; 0.1N HCL,0.261 mg/mL
same,Solubility conc.(mg/ml),[2]; FaSSIF,0.009 mg/mL
same,Solubility conc.(mg/ml),[2]; FeSSIF,0.010 mg/mL
same,Solubility conc.(mg/ml),[2]; SGF,1.828 mg/mL
same,Solubility conc.(mg/ml),[2]; Water,0.145 mg/mL
same,Solubility conc.(mg/ml),[2]; pH 4.5 Acetate Buffer (USP),0.012 mg/mL
same,Solubility conc.(mg/ml),[2]; pH 6.8 Phosphate Buffer (USP),0.014 mg/mL
same,Final pH,[2]; 0.1N HCL,1.56
same,Final pH,[2]; FaSSIF,6.04
same,Final pH,[2]; FeSSIF,4.87
same,Final pH,[2]; SGF,1.55
same,Final pH,[2]; Water,2.71
same,Final pH,[2]; pH 4.5 Acetate Buffer (USP),4.42
same,Final pH,[2]; pH 6.8 Phosphate Buffer (USP),6.64
same,Remaining %,"[3]; 25° C., 0.1N HCL, 0 h, 50 μg/mL, 40% MeOH",100.00%
same,Remaining %,"[3]; 25° C., 0.1N HCL, 3 h, 50 μg/mL, 40% MeOH",100.31%
same,Remaining %,"[3]; 25° C., 0.1N HCL, 24 h, 50 μg/mL, 40% MeOH",100.62%
same,Solution stability,"[3]; 25° C., 24 h, 0.1 N HCl, pH 4.5 buffer and pH 6.8 buffer",stable
same,Remaining %,"[3]; 25° C., pH 4.5, 0 h, 50 μg/mL, 40% MeOH",100.00%
same,Remaining %,"[3]; 25° C., pH 4.5, 3 h, 50 μg/mL, 40% MeOH",100.00%
same,Remaining %,"[3]; 25° C., pH 4.5, 24 h, 50 μg/mL, 40% MeOH",100.08%
same,Remaining %,"[3]; 25° C., pH 6.8*, 0 h, final conc. 25 μg/mL with 40% DMSO",100.00%
same,Remaining %,"[3]; 25° C., pH 6.8*, 3 h, final conc. 25 μg/mL with 40% DMSO",99.64%
same,Remaining %,"[3]; 25° C., pH 6.8*, 24 h, final conc. 25 μg/mL with 40% DMSO",99.64%
same,Remaining %,"[3]; 37° C., 0.1N HCL, 0 h, 50 μg/mL, 40% MeOH",100.00%
same,Remaining %,"[3]; 37° C., 0.1N HCL, 3 h, 50 μg/mL, 40% MeOH",99.92%
same,Remaining %,"[3]; 37° C., 0.1N HCL, 24 h, 50 μg/mL, 40% MeOH",100.92%
same,Solution stability,"[3]; 37° C., 24 h, 0.1N HCl, pH 4.5 buffer",stable
same,Solution stability,"[3]; 37° C., 24 h, pH 6.8 buffer",decomposed
same,Remaining %,"[3]; 37° C., pH 4.5, 0 h, 50 μg/mL, 40% MeOH",100.00%
same,Remaining %,"[3]; 37° C., pH 4.5, 3 h, 50 μg/mL, 40% MeOH",100.39%
same,Remaining %,"[3]; 37° C., pH 4.5, 24 h, 50 μg/mL, 40% MeOH",100.47%
same,Remaining %,"[3]; 37° C., pH 6.8*, 0 h, final conc. 25 μg/mL with 40% DMSO",100.00%
same,Remaining %,"[3]; 37° C., pH 6.8*, 3 h, final conc. 25 μg/mL with 40% DMSO",99.22%
same,Remaining %,"[3]; 37° C., pH 6.8*, 24 h, final conc. 25 μg/mL with 40% DMSO",85.89%
same,Solid-state stability (HPLC),"[4]; 40° C./0% RH (closed) and 40° C./75% RH (open), dark, up to 3 weeks",substantially stable
same,0 day % remaining,"[4]; 40° C. (0% RH, closed)",100.0%
same,7 day % remaining,"[4]; 40° C. (0% RH, closed)",99.1%
same,21 day % remaining,"[4]; 40° C. (0% RH, closed)",99.2%
same,0 day % remaining,[4]; 40° C./75% RH (open),100.0%
same,7 day % remaining,[4]; 40° C./75% RH (open),100.3%
same,21 day % remaining,[4]; 40° C./75% RH (open),99.8%
